One assay has as its target T1, delta opioid receptor (Rattus norvegicus, UniProt P33533).
T1 construct: from tissue; host or cells: forebrain of male Wistar rats
Kind of assay: Rat Brain Delta Opioid Receptor Binding Assay-Version 1a ([3H]naltrindole). Particulars: rat forebrain membranes, 0.1 nM [3H]naltrindole; margin of error 10-20%; read-out: r Ki δ Ver. 1a. Here is the method: Male, Wistar rats (150-250 g, VAF, Charles River, Kingston, N.Y.) were killed by cervical dislocation, and their brains removed and placed immediately in ice-cold Tris HCl buffer (50 mM, pH 7.4). The forebrains were separated from the remainder of the brain by a coronal transection, beginning dorsally at the colliculi and passing ventrally through the midbrain-pontine junction. After dissection, the forebrains were homogenized in Tris buffer in a Teflon®-glass homogenizer. The homogenate was diluted to a concentration of 1 g of forebrain tissue per 80 mL Tris and centrifuged at 39,000×g for 10 min. The pellet was resuspended in the same volume of Tris buffer containing 5 mM MgCl2 with several brief pulses from a Polytron homogenizer. This particulate preparation was used for the delta opioid binding assay. Following incubation with 0.1 nM of the delta selective ligand [^3H]naltrindole at 25° C. for 2.5 h in a 96-well plate with total 1 mL, the plate contents were filtered through Wallac filtermat B sheets on a Tomtec 96-well harvester. The filters were rinsed three times with 2 mL of 10 mM HEPES (pH 7.4), and dried in a microwave oven. To each sample area, Betaplate Scint scintillation fluid (LKB) was added and the resulting radioactivity quantified on a LKB (Wallac) 1205 BetaPlate liquid scintillation counter. Kd and Ki values were calculated using the GraphPad PRISM data analysis program.

A further assay concerns rats. Put plainly: Visceral Hyperalgesia Testing (colorectal balloon distention following zymosan). It is filed as in vivo, rat. Particulars: 30 mg/kg i.p., 5 rats, repeated distentions of 40 mmHg. Here is the method:
Method: Rats were chronically instrumented with EMG electrodes in the muscles of the anterior abdominal wall. Distention of an intracolonic balloon, using a barostat apparatus, evoked increases in the EMG recordings that are related to the pressure. Control responses are compared with repeat stimulation 4 hours after zymosan is administered to the colon (FIG. 1).

pKi: −log10 of the molar value.

What is called pKi is the negative decadic logarithm of the Ki, by convention in mol/L.

T1 sequence (P33533 whole entry): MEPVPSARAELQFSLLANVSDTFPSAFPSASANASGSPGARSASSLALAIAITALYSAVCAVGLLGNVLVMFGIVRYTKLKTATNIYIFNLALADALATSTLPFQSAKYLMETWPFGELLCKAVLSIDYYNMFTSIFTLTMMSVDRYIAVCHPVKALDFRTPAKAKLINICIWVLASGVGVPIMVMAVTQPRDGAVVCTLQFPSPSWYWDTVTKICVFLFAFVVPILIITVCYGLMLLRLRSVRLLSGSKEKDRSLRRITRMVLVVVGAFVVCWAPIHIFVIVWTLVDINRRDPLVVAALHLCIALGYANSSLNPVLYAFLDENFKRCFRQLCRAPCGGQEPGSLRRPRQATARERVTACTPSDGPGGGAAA

`COC(=O)c1ccc(CN(C(=O)[C@@H](N)Cc2ccc(C(N)=O)cc2)[C@@H](C)c2nc(-c3ccccc3)c[nH]2)o1` [Cpd 303]: the negative-log Ki (pKi) on delta opioid receptor is 7.61.

On to `COC(=O)c1ccc(CN(C(=O)[C@@H](N)Cc2c(C)cc(C(N)=O)cc2C)[C@@H](C)c2nc(-c3ccccc3)c[nH]2)o1` [Cpd 257], for which the pKi at delta opioid receptor was 7.85. With `Cc1cc(O)cc(C)c1C[C@H](N)C(=O)N(Cc1cccc(C(=O)O)c1)[C@@H](C)c1nc(-c2ccccc2)c[nH]1` [Cpd 48], the pKi on delta opioid receptor was 9.62. As to `COc1ccc(CN(C(=O)[C@@H](N)Cc2c(C)cc(C(N)=O)cc2C)[C@@H](C)c2nc(-c3ccccc3)c[nH]2)cc1C(=O)O` [Cpd 18], the “hyperalgesic response to colorectal balloon distention following zymosan” value in the assay with rats is reported as “blocked the hyperalgesic response”.

For the origin of these results see US10213415B2, “Compounds as opioid receptor modulators” (JANSSEN PHARMACEUTICA NV, priority 2004, dated 2019).
